Earlier results as cited in patent publication US20050136438A1, “Genetic analysis for stratification of cancer risk” (priority 2003, published 2005).
Structures can show the parent of a compound that is named as a salt.

In the case of O=C(c1ccc(OCCN2CCCCC2)cc1)c1c(-c2ccc(O)cc2)sc2cc(O)ccc12 [Raloxifene HCl, methanone, [6-hydroxy-2-(4-hydroxyphenyl)benzo[b]thien-3-yl]-[4-[2-(1-piperidinyl)ethoxy]phenyl]-hydrochloride], the “solubility in water” value is given as “very slightly soluble”.
